Measured values: ChEMBL document CHEMBL2073894, “Localization of organic anion transporting polypeptide 4 (Oatp4) in rat liver and comparison of its substrate specificity with Oatp1, Oatp2 and Oatp3” (Pflugers Arch, 2001)

Assays:
Details in all cases: oocyte
[1] = target: T1, Solute carrier organic anion transporter family member 1A5 (Rattus norvegicus, UniProt O88397); experiment: (§1) TP_TRANSPORTER: uptake in Xenopus laevis oocytes; type: functional, cell-based, Oocyte
T1 sequence (O88397 whole entry): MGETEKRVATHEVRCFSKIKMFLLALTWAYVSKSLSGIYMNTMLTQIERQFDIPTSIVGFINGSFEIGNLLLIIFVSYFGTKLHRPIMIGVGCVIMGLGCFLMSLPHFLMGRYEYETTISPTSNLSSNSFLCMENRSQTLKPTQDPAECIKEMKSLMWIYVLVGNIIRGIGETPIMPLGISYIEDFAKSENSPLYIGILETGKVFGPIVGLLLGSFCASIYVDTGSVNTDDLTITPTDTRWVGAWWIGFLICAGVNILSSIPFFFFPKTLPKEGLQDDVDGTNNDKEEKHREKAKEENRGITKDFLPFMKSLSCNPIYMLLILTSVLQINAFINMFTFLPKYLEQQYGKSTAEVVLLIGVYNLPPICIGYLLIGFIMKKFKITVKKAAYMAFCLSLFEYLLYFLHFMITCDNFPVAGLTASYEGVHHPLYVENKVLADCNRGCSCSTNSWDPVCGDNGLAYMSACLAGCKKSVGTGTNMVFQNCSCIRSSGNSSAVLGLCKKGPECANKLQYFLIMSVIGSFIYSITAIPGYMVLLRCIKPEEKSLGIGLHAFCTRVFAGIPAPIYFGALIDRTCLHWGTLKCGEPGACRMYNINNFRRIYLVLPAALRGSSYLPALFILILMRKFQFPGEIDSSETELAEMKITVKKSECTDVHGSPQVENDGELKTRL

[2] = target: T2, Solute carrier organic anion transporter family member 1B2 (Rattus norvegicus, UniProt Q9QZX8); experiment: as §1; type: functional, cell-based
T2 sequence (Q9QZX8 whole entry): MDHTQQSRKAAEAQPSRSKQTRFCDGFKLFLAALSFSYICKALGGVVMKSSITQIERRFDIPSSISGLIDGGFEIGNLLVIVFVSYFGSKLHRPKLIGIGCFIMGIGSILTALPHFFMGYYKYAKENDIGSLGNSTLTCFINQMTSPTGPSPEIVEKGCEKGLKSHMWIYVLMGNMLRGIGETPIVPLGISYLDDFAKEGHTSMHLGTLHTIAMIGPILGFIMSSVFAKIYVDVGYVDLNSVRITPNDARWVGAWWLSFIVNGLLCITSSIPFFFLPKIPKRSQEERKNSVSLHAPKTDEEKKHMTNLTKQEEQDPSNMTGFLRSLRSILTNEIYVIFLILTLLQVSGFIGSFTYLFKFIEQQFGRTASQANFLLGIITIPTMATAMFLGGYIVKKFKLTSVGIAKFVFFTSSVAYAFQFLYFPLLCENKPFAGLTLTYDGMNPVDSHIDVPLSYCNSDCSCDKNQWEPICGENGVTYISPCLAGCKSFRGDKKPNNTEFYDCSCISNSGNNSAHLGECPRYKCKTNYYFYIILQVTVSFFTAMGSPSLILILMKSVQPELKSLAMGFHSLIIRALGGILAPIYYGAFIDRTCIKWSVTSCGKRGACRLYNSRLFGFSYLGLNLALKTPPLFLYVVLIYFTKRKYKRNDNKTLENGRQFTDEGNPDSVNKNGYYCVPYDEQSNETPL

[3] = target: T3, Solute carrier organic anion transporter family member 1A4 (Rattus norvegicus, UniProt O35913); experiment: as §1; type: functional, cell-based
T3 sequence (O35913 whole entry): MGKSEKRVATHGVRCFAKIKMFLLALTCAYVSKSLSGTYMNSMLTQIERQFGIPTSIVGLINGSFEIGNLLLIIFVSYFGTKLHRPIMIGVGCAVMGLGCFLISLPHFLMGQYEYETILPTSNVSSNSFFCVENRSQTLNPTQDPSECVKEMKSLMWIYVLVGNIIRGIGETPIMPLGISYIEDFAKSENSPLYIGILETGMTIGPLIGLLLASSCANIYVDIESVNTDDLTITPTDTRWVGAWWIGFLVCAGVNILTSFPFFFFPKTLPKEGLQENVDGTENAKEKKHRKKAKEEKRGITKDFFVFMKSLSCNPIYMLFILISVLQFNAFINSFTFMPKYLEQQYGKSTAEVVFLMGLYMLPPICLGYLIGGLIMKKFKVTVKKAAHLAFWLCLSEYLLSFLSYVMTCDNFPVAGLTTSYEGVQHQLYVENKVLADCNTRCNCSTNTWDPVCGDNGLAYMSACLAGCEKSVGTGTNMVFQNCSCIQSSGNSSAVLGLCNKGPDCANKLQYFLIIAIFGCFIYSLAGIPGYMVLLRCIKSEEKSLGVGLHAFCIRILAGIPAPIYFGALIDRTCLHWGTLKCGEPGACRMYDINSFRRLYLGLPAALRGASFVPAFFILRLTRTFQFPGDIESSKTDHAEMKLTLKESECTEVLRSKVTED

[4] = target: T4, Solute carrier organic anion transporter family member 1A1 (Rattus norvegicus, UniProt P46720); experiment: as §1; type: functional, cell-based
T4 sequence (P46720 whole entry): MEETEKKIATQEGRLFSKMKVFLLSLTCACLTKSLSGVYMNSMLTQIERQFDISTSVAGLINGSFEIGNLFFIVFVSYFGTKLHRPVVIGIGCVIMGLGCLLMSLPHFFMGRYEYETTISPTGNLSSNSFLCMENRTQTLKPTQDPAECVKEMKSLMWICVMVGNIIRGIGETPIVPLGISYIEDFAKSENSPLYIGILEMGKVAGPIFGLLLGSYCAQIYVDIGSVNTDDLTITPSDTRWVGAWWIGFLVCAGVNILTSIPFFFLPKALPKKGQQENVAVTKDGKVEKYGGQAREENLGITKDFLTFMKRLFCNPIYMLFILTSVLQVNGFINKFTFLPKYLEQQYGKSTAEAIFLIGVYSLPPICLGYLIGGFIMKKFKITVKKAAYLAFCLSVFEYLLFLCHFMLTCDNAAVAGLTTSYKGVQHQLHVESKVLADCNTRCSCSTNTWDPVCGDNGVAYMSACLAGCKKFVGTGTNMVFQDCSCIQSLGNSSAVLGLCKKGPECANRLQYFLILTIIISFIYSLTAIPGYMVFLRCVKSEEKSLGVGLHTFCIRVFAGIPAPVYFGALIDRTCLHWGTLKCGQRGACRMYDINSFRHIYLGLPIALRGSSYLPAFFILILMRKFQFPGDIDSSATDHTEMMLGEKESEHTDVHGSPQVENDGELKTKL

Activity [3] | Activity [4] | SMILES | Activity [1] | Activity [2]
 |  | C=C[C@H]1C[N+]2(C)CC[C@H]1C[C@H]2[C@H](O)c1ccnc2ccc(OC)cc12 | is not a substrate [-] | is not a substrate [-]
is not a substrate [-] |  | Nc1ccc(C(=O)NCC(=O)O)cc1 [AMINOHIPPURIC ACID] | is not a substrate [-] | is not a substrate [-]
 |  | CC(C)[C@H](NC(=O)[C@H](CCC(=O)O)NC(=O)[C@H](Cc1ccccc1)NC(=O)[C@@H](C)NC(=O)[C@@H](N)Cc1ccc(O)cc1)C(=O)N[C@H](C(=O)NCC(N)=O)C(C)C [DELTORPHIN II] | is not a substrate [-] | is not a substrate [-]
 | is not a substrate [-] | CCCCC[C@H](O)/C=C/[C@H]1[C@H](O)CC(=O)[C@@H]1C/C=C\CCCC(=O)O [DINOPROSTONE] |  | 
 | is not a substrate [-] | CN(Cc1cnc2nc(N)nc(N)c2n1)c1ccc(C(=O)N[C@@H](CCC(=O)O)C(=O)O)cc1 [METHOTREXATE] | is not a substrate [-] | is not a substrate [-]
